Results as given in ChEMBL document CHEMBL3430912, “GSK Tres Cantos Anti-Kinetoplastid Screening (TCAKS) Data”.

Experiments:
Trypanosoma cruzi [1] = assay: GSK_TCAKS: pIC50 Trypanosoma cruzi viability assay using beta-GAL activity. This assay was run at single shot at 5uM compound concentration per well. The biological reagents consisted of NIH-3T3 host cells and trypomastigotes parasitic cells; both cell types were set to a 3.3 * 10^5 cells/mL dilution in assay DMEM by means of a CASY cell counter device using a 60um capillary. 6 uL of the mixture were dispensed per well (about 1 * 10^3 host-cells and 1 * 10^3 parasites) with a Multidrop Combi dispenser. […] In all wells, the percentage of DMSO never exceeded 0.5%. Plates incubated for four days at 37C, 5% CO2. The substrate used for the assay fluorescence intensity (FLINT) readout was resorufin-beta-D-galactopiranoside (Sigma-Aldrich) at 5uM per well. It was diluted in PBS supplemented with the soft detergent Igepal (Fluka).; type: functional, organism-based, Mus musculus; details: Tulahuen, NIH3T3
Trypanosoma cruzi [2] = assay: (§1) GSK_TCAKS: pIC50 Trypanosoma cruzi Imaging: Infected Cells. […] Cells were then washed once with PBS before infection. T. cruzi trypomastigotes, collected at days 5 to 8 after infection from LLC-MK2 parasite infected cultures, were allowed to swim out for 4h at 37C from a centrifuged pellet (2,500 rpm/10 min/room temperature). Trypomastigotes were then collected and counted in a CASY Cell Counter. Trypomastigotes, in supplemented DMEM, were added to H9c2 cultures in a multiplicity of infection of 1 and incubated for 18 h. Cells were washed once with PBS before incubation of the infected H9c2 monolayer with trypsin (Life-Technologies) to detach cells from the flask. Cells were counted in a CASY Cell Counter using a 150 um capillary and their density set at 5 * 10^4 cells per mL in supplemented assay DMEM. Infected H9c2 were dispensed into 384-well poly-lysine coated assay plates at 50uL per well using a Multidrop Combi dispenser. After seeding them, the plates were incubated at 37C, 5% CO2 for 72h. Cultures were then fixed and stained by addition of 50 uL of a solution containing 8% formaldehyde and 4 uM DRAQ5 DNA dye (BioStatus, UK) per well. […] Five images were collected per well for reliable statistical analysis. Automated image analysis was performed with a script developed on Acapella High Content Imaging and Analysis Software (PerkinElmer). Output: percentage of infected cells per well as a second infection marker.; type: functional, organism-based, Rattus norvegicus; details: H9c2, 4 h
Trypanosoma cruzi [3] = assay: GSK_TCAKS: pIC50 Trypanosoma cruzi Imaging: Amastigotes/Cell. […] Cells were then washed once with PBS before infection. T. cruzi trypomastigotes, collected at days 5 to 8 after infection from LLC-MK2 parasite infected cultures, were allowed to swim out for 4h at 37C from a centrifuged pellet (2,500 rpm/10 min/room temperature). Trypomastigotes were then collected and counted in a CASY Cell Counter. Trypomastigotes, in supplemented DMEM, were added to H9c2 cultures in a multiplicity of infection of 1 and incubated for 18 h. Cells were washed once with PBS before incubation of the infected H9c2 monolayer with trypsin (Life-Technologies) to detach cells from the flask. Cells were counted in a CASY Cell Counter using a 150 um capillary and their density set at 5 * 10^4 cells per mL in supplemented assay DMEM. Infected H9c2 were dispensed into 384-well poly-lysine coated assay plates at 50uL per well using a Multidrop Combi dispenser. After seeding them, the plates were incubated at 37C, 5% CO2 for 72h. Cultures were then fixed and stained by addition of 50 uL of a solution containing 8% formaldehyde and 4 uM DRAQ5 DNA dye (BioStatus, UK) per well. […] Five images were collected per well for reliable statistical analysis. Automated image analysis was performed with a script developed on Acapella High Content Imaging and Analysis Software (PerkinElmer). Output: number of amastigotes per cell as infection level measurement.; type: functional, organism-based, Rattus norvegicus; details: H9c2, 4 h
Trypanosoma cruzi [4] = assay: as §1, with “H2C9” for “Trypanosoma cruzi”, “H9c2 Host Cardiomyocytes.” for “Infected Cells.”, “Number” for “percentage”, “H9c2 Host Cardiomyocytes nuclei to determine drug-related cytotoxicity.” for “infected cells per well as a second infection marker.”; type: functional, organism-based, Rattus norvegicus; details: H9c2, 4 h
Leishmania donovani [5] = assay: GSK_TCAKS: pIC50 Leishmania donovani viability assay using fluorescence intensity. Assay plates (1536-well) were prepared by adding 30nL per well of compound. For single shot assay, the final compound concentration was 5uM. […] Briefly, eGFP LdBOB axenic amastigotes were harvested, fixed and counted in a CASY cell counter (Roche-Applied Science). A final concentration of 1.5 * 10^5 cells per well were prepared in amastigote media containing 500 U/mL penicillin/streptomycin (Invitrogen) and 6uL was dispensed to each experimental well using a Multidrop Combi dispenser (Thermo Scientific). 6uL of assay media was dispensed to control columns used as reference for 100% compound response. Following incubation for 72 h at 37C, 5% CO2, 2 uL of resazurin was added to each well at a final concentration of 0.5 mM in phosphate buffered saline (PBS) with IGEPAL (Sigma-Aldrich), 0.05% (v/v).; type: functional, organism-based
Leishmania donovani [6] = assay: GSK_TCAKS: pIC50 Leishmania donovani Imaging: Infected Macrophages. Assay plates (384-well) were prepared by adding 250nL of compound to each well. For single shot assay, the final compound concentration was 5 uM. […] Automated image analysis was performed with a script developed on Acapella High Content Imaging and Analysis Software (PerkinElmer). Output: Percent of infected macrophage cells were reported for each well.; type: functional, organism-based, Homo sapiens; details: THP-1
Leishmania donovani [7] = assay: GSK_TCAKS: pIC50 Leishmania donovani Imaging: Amastigotes/Macrophages. Assay plates (384-well) were prepared by adding 250nL of compound to each well. For single shot assay, the final compound concentration was 5 uM. […] Automated image analysis was performed with a script developed on Acapella High Content Imaging and Analysis Software (PerkinElmer). Output: Average number of amastigotes per macrophage cell were reported for each well.; type: functional, organism-based, Homo sapiens; details: THP-1
Leishmania donovani [8] = assay: GSK_TCAKS: pIC50 Leishmania donovani Imaging: THP-1 Host Macrophages. Assay plates (384-well) were prepared by adding 250nL of compound to each well. For single shot assay, the final compound concentration was 5 uM. […] Automated image analysis was performed with a script developed on Acapella High Content Imaging and Analysis Software (PerkinElmer). Output: THP-1 cell count were reported for each well.; type: functional, organism-based, Homo sapiens
[9] = test system: Trypanosoma brucei brucei; assay: GSK_TCAKS: pIC50 Trypanosoma brucei viability assay using fluorescence intensity. Assay plates (1536-well) were prepared by dispensing 25nL of compound solution per well using an Echo acoustic dispenser (Labcyte).; type: functional, organism-based; details: Lister 427, 2 h
[10] = test system: Trypanosoma brucei brucei; assay: GSK_TCAKS: pIC50 Trypanosoma brucei viability assay using luminiscence. Assay plates (1536-well) were prepared. T. brucei cultures were harvested and counted in a CASY cell counter. A parasite suspension was prepared at a final concentration of 5 * 10^4 cells/mL in complete HMI9 medium and 6uL was dispensed to all wells containing compounds using a Multidrop Combi dispenser. 6uL of HMI9 media with 0.4% DMSO were dispensed to control columns. Plates were incubated for 24 h at 37C, 5% CO2 then tempered for 10 min at room temperature. ATP content was quantified by adding 4 uL of CellTiter-Glo Reagent (Promega) according to the manufacturer's instructions. Luminescence was measured using a ViewLux.; type: functional, organism-based; details: Lister 427, CASY
[11] = GSK_TCAKS: pIC50 HepG2 human cell line viability assay using luminiscence. […] Seeding density was checked to ensure that new mono-layers were not more than 50% confluent at the time of harvesting. Cell suspension was added to 500 mL of the same medium at a final density of 1.2 * 10^5 cells/mL. This cell suspension was dispensed (25 uL, 3000 cells per well) into 384-well clear-bottom plates using a Multidrop Combi dispenser. Prior to addition of the cell suspension, the screening compounds (250 nL) were pre-dispensed into the plates with an Echo liquid handler. Plates were incubated for 48 h at 37C, 5% CO2. After incubation, plates equilibrated at room temperature for 30 min before proceeding to develop the luminescent signal. The signal developer, CellTiter-Glo Reagent, was allowed to equilibrate at room temperature for 30 min and added to the plates (25uL per well) using a Multidrop Combi dispenser. Plates were left for 10 min at room temperature for stabilization and then read using a ViewLux.; type: toxicity, cell-based
[12] = molecular target: Sterol 14-alpha demethylase (Trypanosoma cruzi (strain CL Brener), UniProt Q7Z1V1); assay: GSK_TCAKS: pIC50 CYP51 from Trypanosoma cruzi.; type: functional
Chain of Sterol 14-alpha demethylase (Q7Z1V1 whole entry): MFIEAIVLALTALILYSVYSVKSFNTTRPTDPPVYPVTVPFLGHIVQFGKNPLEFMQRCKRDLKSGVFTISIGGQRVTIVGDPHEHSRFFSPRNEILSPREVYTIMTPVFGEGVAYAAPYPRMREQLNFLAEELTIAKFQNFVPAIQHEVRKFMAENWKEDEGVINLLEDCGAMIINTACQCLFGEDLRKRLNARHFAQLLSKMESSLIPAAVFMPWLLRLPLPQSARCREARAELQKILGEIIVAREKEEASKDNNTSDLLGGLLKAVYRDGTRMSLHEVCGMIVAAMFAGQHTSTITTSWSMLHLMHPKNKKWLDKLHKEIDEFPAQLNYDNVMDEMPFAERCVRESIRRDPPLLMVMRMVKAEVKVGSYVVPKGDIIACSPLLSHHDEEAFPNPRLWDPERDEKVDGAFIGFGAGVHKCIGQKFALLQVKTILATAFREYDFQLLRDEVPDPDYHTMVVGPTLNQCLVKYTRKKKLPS

Row | Compound | IC50 (Trypanosoma cruzi [1]) [µM] | IC50 (Trypanosoma cruzi [2]) [µM] | IC50 (Trypanosoma cruzi [3]) [µM] | IC50 (Trypanosoma cruzi [4]) [µM] | IC50 (Leishmania donovani [5]) [µM] | IC50 (Leishmania donovani [6]) [µM] | IC50 (Leishmania donovani [7]) [µM] | IC50 (Leishmania donovani [8]) [µM] | IC50 [9] [µM] | IC50 [10] [µM] | IC50 at 48 h [11] [µM] | IC50 [12] [µM]
1 | O=C(NCCc1csc(-c2ccc(F)cc2)n1)c1cccs1 | 0.398 | 0.398 | 0.251 | > 50.1 | > 50.1 | > 50.1 | 20 | > 50.1 | 0.251 | 0.2 | > 100 | 25.1
2 | O=C(Nc1ccccc1)Nc1nc(-c2ccccn2)cs1 | 0.631 | 1 | 0.631 | 1 | 1.58 | 0.398 | 0.251 | 6.31 | 1 | 1 | 25.1 | 31.6
3 | O=C(Nc1nc2ccccc2[nH]1)c1c(O)c2cccc3c2n(c1=O)CC3 | 20 | 15.8 | 25.1 | 10 | 2.51 | 2 | 1 | > 50.1 | 15.8 | 20 | 10 | > 100
4 | N#Cc1ccc(C(=O)Nc2cccc(-c3cccc(CN4CCC(O)CC4)c3)c2)cc1 | 5.01 | 7.94 | 7.94 | 31.6 | > 50.1 | 15.8 | 7.94 | 15.8 | 0.794 | 0.794 | 39.8 | 25.1
5 | O=C(Nc1nc(-c2ccccn2)cs1)N1C[C@H]2C[C@@]2(c2ccccc2)C1 | 0.501 | 0.501 | 0.251 | 0.794 | 2 | 0.501 | 0.398 | 7.94 | 0.501 | 0.631 | 25.1 | 39.8
6 | CN(C)S(=O)(=O)c1cccc(C(=O)Nc2nc(-c3ccccn3)cs2)c1 | 1.26 | 1.58 | 1 | 7.94 | 1.26 | 6.31 | 2.51 | 7.94 | 0.501 | 0.631 | > 100 | 31.6
7 | O=C(CCCNC(=O)c1ccc(Cl)cc1)Nc1nc(-c2ccccn2)cs1 | 6.31 | 25.1 | 10 | 25.1 | > 50.1 | 5.01 | 3.16 | > 50.1 | 7.94 | 12.6 | > 100 | 3.16
8 | CCCNC(=O)Nc1cccc(-c2nc3ncccc3o2)c1 | 2.82 | 3.98 | 3.16 | 25.1 | 3.16 | 12.6 | 15.8 | 20 | 0.501 | 1 | > 100 | > 100
9 | CN(C)c1ccc(N)cc1CN(CC1CCCO1)S(C)(=O)=O (configuration not stated) | > 50.1 | > 50.1 | > 50.1 | > 50.1 | 3.98 | 12.6 | 10 | > 50.1 | > 39.8 | > 39.8 | > 100 | > 100
10 | COc1ccc(C2CC(c3ccccc3Cl)=NN2C(=O)CNC(=O)C2CCCC2)cc1 (configuration not stated) | 3.55 | 3.16 | 2 | > 50.1 | > 50.1 | > 50.1 | > 50.1 | > 50.1 | 0.631 | 0.794 | > 100 | 63.1
11 | Cc1nc2c(-c3cccs3)c(C)nn2c(NCCO)c1C | 39.8 | 31.6 | 15.8 | > 50.1 | > 50.1 | > 50.1 | > 50.1 | > 50.1 | 0.126 | 0.2 | > 100 | > 100
